Where two headings read alike, the source gives them in different places. Where a SMILES comes first, the peptide text is derived from it. Where no end group is shown, it is not given here. [ ]: non-standard residue; d: D form. The star is where a group is joined. Octanoyl = CCCCCCCC(=O)*
What was measured:
human GHSR1a = human GHSR1a (Homo sapiens, UniProt Q92847); test: Aequorin bioluminescence functional assay (intracellular calcium mobilization) in 293AEQ17/GHSR1a cells; type: cell-based; conditions: for activation at 10 µM: read-out: Functional Assay % activation at 10 μM relative to ghrelin; for EC50: aequorin bioluminescence, HEK-293 cells expressing hGHSR1a, three separate assays
Procedure: A stable cell line expressing the human GHSR1a and the aequorin reporter protein were used for the assay.
The assay was performed using a Luminoskan RT luminometer (Labsystems Inc., Gaithersburg, Md.) controlled by custom software written for a Macintosh PowerPC 6100. […] The cells were harvested, washed once in ECB medium and resuspended to 500,000 cells/ml. 100 ml of cell suspension (corresponding to 5×10^4 cells) was then injected into the test plate containing the peptides, and the integrated light emission was recorded over 30 seconds, in 0.5 second units. 20 μL of lysis buffer (0.1% final Triton X-100 concentration) was then injected and the integrated light emission recorded over 10 seconds, in 0.5 second units. The “fractional response” values for each well were calculated by taking the ratio of the integrated response to the initial challenge to the total integrated luminescence including the Triton X-100 lysis response. The functional EC50 values were measured in three separate assays.

human GHS receptor 1a = human GHS receptor 1a (Homo sapiens, UniProt Q92847); test: Competitive binding assay with [35S]-MK-677 on membranes of HEK 293-aequorin cells transfected with human GHS receptor; conditions: competition with 0.05 nM [35S]-MK-677; three separate assays in triplicate
Procedure: Prior to the binding assay, the HEK 293-AEQ17 cells (8×10^5 cells plated 18 hours before transfection in a T75 flask) were transfected with 22 μg of human GHS receptor plasmid using 264 μg lipofectamine. The open reading frame cDNA (SEQ. ID. NO. 22) encoding the human GHS receptor inserted in the mammalian expression vector pcDNA-3 (Invitrogen, Carlsbad, Calif.) was used for binding and expression studies.
For a 96-well filter binding assay, 0.05 nM [^35S]-NM-677 (specific activity ˜1200 Ci/mmol) was bound to 4 μg membrane protein per well with or without competing test ligand. The bound membranes were filtered on 0.5% polyethylenimine prewet filters (UniFilter 96 GF/C; Packard #6005174, Meriden, Conn.). Filters were washed 8 times, dried, and counted with Microscint 20 (Packard #6013621, Meriden, Conn.). IC50 values were determined from three separate assays performed in triplicate.

somatotrops = conditions: several species including man; cited from earlier work

human GHSR1a, sequence (Q92847 whole entry): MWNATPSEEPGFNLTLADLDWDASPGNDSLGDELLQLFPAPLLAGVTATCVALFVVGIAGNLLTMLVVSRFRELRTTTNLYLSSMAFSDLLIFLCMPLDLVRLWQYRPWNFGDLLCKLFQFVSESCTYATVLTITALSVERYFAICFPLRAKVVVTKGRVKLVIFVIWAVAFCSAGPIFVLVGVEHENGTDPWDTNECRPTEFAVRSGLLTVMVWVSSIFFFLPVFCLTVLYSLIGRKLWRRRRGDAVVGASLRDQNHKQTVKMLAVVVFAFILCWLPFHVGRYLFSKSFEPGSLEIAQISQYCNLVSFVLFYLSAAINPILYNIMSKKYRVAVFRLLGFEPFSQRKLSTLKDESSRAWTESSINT
human GHS receptor 1a, sequence (Q92847 whole entry): as above

CCCCCCCC(=O)NC[C@H](NC(=O)[C@H](CO)NC(=O)CN)C(=O)N[C@@H](Cc1ccccc1)C(=O)N[C@@H](CC(C)C)C(=O)N[C@@H](CO)C(=O)N1CCC[C@H]1C(=O)N[C@@H](CCC(=O)O)C(=O)N[C@@H](Cc1c[nH]cn1)C(=O)N[C@@H](CCC(N)=O)C(=O)N[C@@H](CCCNC(=N)N)C(=O)N[C@H](C(=O)N[C@@H](CCC(N)=O)C(=O)N[C@@H](CCC(N)=O)C(=O)N[C@@H](CCCNC(=N)N)C(=O)N[C@@H](CCCCN)C(=O)N[C@@H](CCC(=O)O)C(=O)N[C@@H](CO)C(=O)N[C@@H](CCCCN)C(=O)N[C@@H](CCCCN)C(=O)N1CCC[C@H]1C(=O)N1CCC[C@H]1C(=O)N[C@@H](C)C(=O)N[C@@H](CCCCN)C(=O)N[C@@H](CC(C)C)C(=O)N[C@@H](CCC(N)=O)C(=O)N1CCC[C@H]1C(=O)N[C@@H](CCCNC(=N)N)C(=O)O)C(C)C [Compound 12]
activation at 10 µM (human GHSR1a; at 10 μM, relative to ghrelin): 105 ± 5%

CCCCCCCC(=O)OC[C@H](NC(=O)[C@H](CO)NC(=O)CN)C(=O)N[C@@H](Cc1ccccc1)C(=O)N[C@@H](CC(C)C)C(=O)N[C@@H](CO)C(=O)N1CCC[C@H]1C(=O)N[C@@H](CCC(=O)O)C(=O)N[C@@H](Cc1c[nH]cn1)C(=O)N[C@@H](CCC(N)=O)C(=O)N[C@@H](CCCNC(=N)N)C(=O)N[C@H](C(=O)N[C@@H](CCC(N)=O)C(=O)N[C@@H](CCC(N)=O)C(N)=O)C(C)C [Compound 13, GSXFLSPEHQRVQQ]
activation at 10 µM (human GHSR1a; at 10 μM, relative to ghrelin): 97 ± 9%

CCCCCCCC(=O)NC[C@H](NC(=O)[C@H](CO)NC(=O)CN)C(=O)N[C@@H](Cc1ccccc1)C(=O)N[C@@H](CC(C)C)C(=O)N[C@@H](CO)C(=O)N1CCC[C@H]1C(=O)N[C@@H](CCC(=O)O)C(=O)N[C@@H](Cc1c[nH]cn1)C(=O)N[C@@H](CCC(N)=O)C(=O)N[C@@H](CCCNC(=N)N)C(=O)N[C@H](C(=O)N[C@@H](CCC(N)=O)C(=O)N[C@@H](CCC(N)=O)C(=O)O)C(C)C [Compound 14]
activation at 10 µM (human GHSR1a; at 10 μM, relative to ghrelin): 102 ± 3%

CCCCCCCC(=O)OC[C@H](NC(=O)[C@H](CO)NC(=O)CN)C(=O)N[C@@H](Cc1ccccc1)C(=O)N[C@@H](CC(C)C)C(=O)N[C@@H](CO)C(=O)N1CCC[C@H]1C(=O)N[C@@H](CCC(=O)O)C(=O)N[C@@H](Cc1c[nH]cn1)C(=O)N[C@@H](CCC(N)=O)C(=O)N[C@@H](CCCNC(=N)N)C(=O)N[C@H](C(=O)N[C@@H](CCC(N)=O)C(=O)N[C@@H](CCC(N)=O)C(=O)N[C@@H](CCCNC(=N)N)C(=O)N[C@@H](CCCCN)C(=O)N[C@@H](CCC(=O)O)C(=O)N[C@@H](CO)C(=O)N[C@@H](CCCCN)C(=O)N[C@@H](CCCCN)C(=O)N1CCC[C@H]1C(=O)N1CCC[C@H]1C(=O)N[C@@H](C)C(N)=O)C(C)C [Compound 18, GSXFLSPEHQRVQQRKESKKPPA-NH2] (H-GSS(Octanoyl)FLSPEHQRVQQRKESKKPPA-NH2)
activation at 10 µM (human GHSR1a; at 10 μM, relative to ghrelin): 100 ± 4%

CCCCCCCC(=O)OC[C@H](NC(=O)[C@H](CO)NC(=O)CN)C(=O)N[C@@H](Cc1ccccc1)C(=O)N[C@@H](CC(C)C)C(=O)N[C@@H](CO)C(=O)N1CCC[C@H]1C(=O)N[C@@H](CCC(=O)O)C(=O)N[C@@H](Cc1c[nH]cn1)C(=O)N[C@@H](CCC(N)=O)C(=O)N[C@@H](CCCNC(=N)N)C(=O)N[C@H](C(=O)N[C@@H](CCC(N)=O)C(=O)N[C@@H](CCC(N)=O)C(=O)N[C@@H](CCCNC(=N)N)C(=O)N[C@@H](CCCCN)C(=O)N[C@@H](CCC(=O)O)C(=O)N[C@@H](CO)C(N)=O)C(C)C [Compound 19, GSXFLSPEHQRVQQRKES-NH2] (H-GSS(Octanoyl)FLSPEHQRVQQRKES-NH2; N-terminus assumed)
activation at 10 µM (human GHSR1a; at 10 μM, relative to ghrelin): 92 ± 16%

CCCCCCCC(=O)OC[C@H](NC(=O)[C@H](CO)NC(=O)CN)C(=O)N[C@@H](Cc1ccccc1)C(=O)N[C@@H](CC(C)C)C(N)=O [Compound 21, GSXFL-NH2] (H-GSS(Octanoyl)FL-NH2)
activation at 10 µM (human GHSR1a; at 10 μM, relative to ghrelin): 96 ± 7%

CCCCCCCC(=O)OC[C@H](NC(=O)[C@H](CO)NC(=O)CN)C(=O)N[C@@H](Cc1ccccc1)C(N)=O [Compound 22, GSXF-NH2] (H-GSS(Octanoyl)F-NH2)
EC50 (human GHSR1a): 72 ± 29 nM | activation at 10 µM (human GHSR1a; at 10 μM, relative to ghrelin): 91 ± 4% | IC50 (human GHS receptor 1a): 889 ± 72 nM

CCCCCCCC(=O)OC[C@H](NC(=O)[C@H](CO)NC(C)=O)C(=O)N[C@@H](Cc1ccccc1)C(=O)N[C@@H](CC(C)C)C(N)=O [Compound 23, Ac-SXFL-NH2] (Ac-SS(Octanoyl)FL-NH2)
EC50 (human GHSR1a): 1150 ± 120 nM | activation at 10 µM (human GHSR1a; at 10 μM, relative to ghrelin): 30 ± 5%

CCCCCCCC(=O)OC[C@H](NC(=O)[C@H](CO)NC(=O)CN)C(N)=O [Compound 24, GSX-NH2] (H-Gly-Ser-Ser(Octanoyl)-NH2)
activation at 10 µM (human GHSR1a): 28 ± 1%

CCCCCCCC(=O)OC[C@H](NC(C)=O)C(=O)N[C@@H](Cc1ccccc1)C(=O)N[C@@H](CC(C)C)C(N)=O [Compound 25, Ac-XFL-NH2] (Ac-Ser(Octanoyl)-Phe-Leu-NH2)
EC50 (human GHSR1a): 2500 ± 1200 nM | activation at 10 µM (human GHSR1a): 29 ± 7%

CCCCCCCC(=O)OC[C@H](NC(=O)[C@H](CO)NC(C)=O)C(=O)N[C@@H](Cc1ccccc1)C(N)=O [Compound 26, Ac-SXF-NH2] (Ac-Ser-Ser(Octanoyl)-Phe-NH2)
activation at 10 µM (human GHSR1a; at 10 μM, relative to ghrelin): 28 ± 1%

H[dW]AW[dF]K-NH2 [GHRP-6]
growth hormone release from somatotrops, result in words (somatotrops): release growth hormone from somatotrops in a dose-dependent manner
